Source: patent publication US10517889B2, “Modulators of SMAD7 expression” (Ionis Pharmaceuticals, Inc., priority 2017, dated 2019)
Strand notation (5' to 3'): a small letter for the sugar, then the base; units joined by * are phosphorothioate-linked, units joined directly phosphodiester-linked; [ ] holds rarer units or linkages, { } end groups; capitals alone tell only the bases. k = constrained ethyl (cEt); [5mC] = 5-methylcytosine; d = 2'-deoxy (DNA)

Legend:
human SMAD7 mRNA [1] = experiment: Antisense inhibition of human SMAD7 mRNA expression in Hep3B cells by 3-10-3 cEt gapmers, 10,000 nM, electroporation (Example 2); format: cell-based; conditions: approximately 24 hours
Outline: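 Hep3B cells (20,000/well) were electroporated with 10,000 nM 3-10-3 cEt gapmer (16-mer, phosphorothioate, 5-methylcytosines) and harvested after about 24 h. SMAD7 mRNA quantified by RT-qPCR with primer probe set RTS5062, normalized to total RNA by RiboGreen; percent inhibition relative to untreated cells.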

human SMAD7 mRNA [2] = experiment: Dose-dependent inhibition of human SMAD7 mRNA expression in Hep3B cells (Example 3, Study 1 and 2); format: cell-based; conditions: electroporation; for % inhibition of SMAD7 mRNA expression: approximately 16 hours; for IC50: Study 2 (740-20000 nM)
Experimental: The antisense oligonucleotides were tested in a series of experiments that had similar culture conditions as described below.
(§1) Cells were plated at a density of 20,000 cells per well and transfected using electroporation with 0.31 μM, 1.25 μM, 5.00 μM, or 20.00 μM concentrations of antisense oligonucleotide, as specified in the Tables below. ION 483663 was included in the assays for comparison. After a treatment period of approximately 16 hours, RNA was isolated from the cells and SMAD7 mRNA levels were measured by quantitative real-time PCR. Primer probe set RTS5062 was used to measure human SMAD7 mRNA levels. SMAD7 mRNA levels were adjusted according to total RNA content, as measured by RIBOGREEN®. Results are presented as percent inhibition of SMAD7 mRNA expression, relative to untreated control cells.
The half maximal inhibitory concentration (IC50) of each oligonucleotide is also presented.
as §1, with “0.74” for “0.31”, “2.22” for “1.25”, “6.67” for “5.00”, “below.” for “below. ION 483663 was included in the assays for comparison.”

[3] = SMAD7 mRNA, Hep3B cells, 10,000 nM antisense oligonucleotide, electroporation, primer probe set RTS5062, relative to untreated control cells
[4] = 740 nM, Study 2, relative to untreated control cells
[5] = Hep3B cells, electroporation with 10,000 nM antisense oligonucleotide, SMAD7 mRNA by RT-PCR (RTS5062), relative to untreated control cells

| Substance | % Inhibition (human SMAD7 mRNA [1]; [5]) | other results |
| --- | --- | --- |
| 772553 (antisense kT*k[5mC]*kT*dT*dG*dA*dG*d[5mC]*dA*d[5mC]*d[5mC]*dG*dA*kG*kT*kG) [compound 772553] |  | % Inhibition (human SMAD7 mRNA [1]; [3]): 59%; % inhibition of SMAD7 mRNA expression (human SMAD7 mRNA [2]; [4]): 36%; % inhibition of SMAD7 mRNA expression (human SMAD7 mRNA [2]; 2220 nM, Study 2): 45%; % inhibition of SMAD7 mRNA expression (human SMAD7 mRNA [2]; 6670.0 nM, Study 2): 71%; % inhibition of SMAD7 mRNA expression (human SMAD7 mRNA [2]; 20000.0 nM, Study 2): 89%; IC50 (human SMAD7 mRNA [2]): 2000 nM |
| 772560 (antisense kT*kT*kG*d[5mC]*dA*d[5mC]*dA*dG*d[5mC]*dA*dG*dG*dA*kG*kG*kG) [compound 772560] |  | % inhibition of SMAD7 mRNA expression (human SMAD7 mRNA [1]; Hep3B cells, electroporation with 10,000 nM antisense oligonucleotide, primer probe set RTS5062, relative to untreated control cells): 66%; % inhibition of SMAD7 mRNA expression (human SMAD7 mRNA [2]; [4]): 0%; % inhibition of SMAD7 mRNA expression (human SMAD7 mRNA [2]; 2220 nM, Study 2): 32%; % inhibition of SMAD7 mRNA expression (human SMAD7 mRNA [2]; 6670.0 nM, Study 2): 57%; % inhibition of SMAD7 mRNA expression (human SMAD7 mRNA [2]; 20000.0 nM, Study 2): 82%; IC50 (human SMAD7 mRNA [2]): 5000 nM |
| 772578 (kG*kG*kT*dA*dT*d[5mC]*dT*dG*dG*dA*dG*dT*dA*kA*kG*kG; antisense) [compound 772578] |  | % Inhibition (human SMAD7 mRNA [1]; [3]): 63%; % inhibition of SMAD7 mRNA expression (human SMAD7 mRNA [2]; [4]): 54%; % inhibition of SMAD7 mRNA expression (human SMAD7 mRNA [2]; 2220 nM, Study 2): 44%; % inhibition of SMAD7 mRNA expression (human SMAD7 mRNA [2]; 6670.0 nM, Study 2): 70%; % inhibition of SMAD7 mRNA expression (human SMAD7 mRNA [2]; 20000.0 nM, Study 2): 86%; IC50 (human SMAD7 mRNA [2]): 1000 nM |
| 772732 (kG*kA*kT*dA*dT*dT*dT*dA*dG*d[5mC]*dT*dG*dT*k[5mC]*kA*kG; antisense) [compound 772732] |  | % Inhibition (human SMAD7 mRNA [1]; [3]): 58%; % inhibition of SMAD7 mRNA expression (human SMAD7 mRNA [2]; [4]): 27%; % inhibition of SMAD7 mRNA expression (human SMAD7 mRNA [2]; 2220 nM, Study 2): 60%; % inhibition of SMAD7 mRNA expression (human SMAD7 mRNA [2]; 6670.0 nM, Study 2): 63%; % inhibition of SMAD7 mRNA expression (human SMAD7 mRNA [2]; 20000.0 nM, Study 2): 68%; IC50 (human SMAD7 mRNA [2]): 3000 nM |
| 830179 (antisense kT*kT*kT*dA*d[5mC]*dT*dG*d[5mC]*dA*dT*dT*d[5mC]*d[5mC]*kG*kG*k[5mC]) [compound 830179] | 51% |  |
| 830181 (antisense kG*k[5mC]*kG*dG*d[5mC]*dT*dT*d[5mC]*d[5mC]*dT*dG*dT*dG*k[5mC]*k[5mC]*k[5mC]) [compound 830181] | 10% |  |
| 830182 (antisense kG*kT*kG*dT*d[5mC]*d[5mC]*dT*dT*d[5mC]*dA*dG*dA*dA*k[5mC]*kA*k[5mC]) [compound 830182] | 0% |  |
| 830183 (antisense k[5mC]*kG*kG*dT*dT*dG*d[5mC]*d[5mC]*dT*d[5mC]*dA*dT*d[5mC]*k[5mC]*kT*kG) [compound 830183] | 47% |  |
| 830184 (antisense kA*k[5mC]*kG*dG*dT*dT*dG*d[5mC]*d[5mC]*dT*d[5mC]*dA*dT*k[5mC]*k[5mC]*kT) [compound 830184] | 48% |  |
| 830185 (antisense kG*k[5mC]*k[5mC]*dA*d[5mC]*d[5mC]*dA*dA*d[5mC]*dG*dG*dT*dT*kG*k[5mC]*k[5mC]) [compound 830185] | 27% |  |
| 830186 (antisense kA*kG*kG*dT*d[5mC]*d[5mC]*dA*dG*dG*dG*dT*d[5mC]*d[5mC]*kT*k[5mC]*k[5mC]) [compound 830186] | 50% |  |
| 830187 (antisense kA*kT*kT*dA*d[5mC]*d[5mC]*d[5mC]*dT*dG*d[5mC]*dT*d[5mC]*dA*kT*kG*kA) [compound 830187] | 31% |  |
| 830188 (antisense k[5mC]*k[5mC]*kA*d[5mC]*dT*dT*dA*dG*d[5mC]*dA*dA*dG*dG*kA*kG*k[5mC]) [compound 830188] | 50% |  |
| 830189 (antisense kT*kT*kG*dG*dA*dG*d[5mC]*dA*dA*d[5mC]*dA*d[5mC]*d[5mC]*kA*kG*kA) [compound 830189] | 49% |  |
| 830190 (antisense kT*kA*kA*dT*d[5mC]*dA*dG*dA*dT*dG*d[5mC]*d[5mC]*dT*kG*k[5mC]*kT) [compound 830190] | 39% |  |
| 830191 (antisense k[5mC]*kT*kA*dA*dT*d[5mC]*dA*dG*dA*dT*dG*d[5mC]*d[5mC]*kT*kG*k[5mC]) [compound 830191] | 47% |  |
| 830192 (antisense kA*k[5mC]*kT*dA*dA*dT*d[5mC]*dA*dG*dA*dT*dG*d[5mC]*k[5mC]*kT*kG) [compound 830192] | 41% |  |
| 830193 (antisense k[5mC]*kT*kT*dT*dT*d[5mC]*d[5mC]*dG*dG*dT*dA*dT*dT*kT*kT*k[5mC]) [compound 830193] | 35% |  |

| Substance | % Inhibition (human SMAD7 mRNA [1]; [5]) | other results |
| --- | --- | --- |
| 830194 (antisense k[5mC]*k[5mC]*kT*dT*dT*dT*d[5mC]*d[5mC]*dG*dG*dT*dA*dT*kT*kT*kT) [compound 830194] | 49% |  |
| 830195 (antisense kA*kA*k[5mC]*d[5mC]*dT*dT*dT*dT*d[5mC]*d[5mC]*dG*dG*dT*kA*kT*kT) [compound 830195] | 35% |  |
| 830196 (antisense kT*kT*kA*dA*dT*dG*dG*d[5mC]*d[5mC]*d[5mC]*dA*dG*d[5mC]*k[5mC]*k[5mC]*kA) [compound 830196] | 31% |  |
| 830197 (antisense kG*kT*kT*dA*dA*dT*dG*dG*d[5mC]*d[5mC]*d[5mC]*dA*dG*k[5mC]*k[5mC]*k[5mC]) [compound 830197] | 31% |  |
| 830198 (antisense kA*kG*kG*d[5mC]*dT*dA*d[5mC]*dA*d[5mC]*d[5mC]*dA*dA*dA*kG*kA*k[5mC]) [compound 830198] | 30% |  |
| 830199 (antisense kA*kA*kG*dG*d[5mC]*dT*dA*d[5mC]*dA*d[5mC]*d[5mC]*dA*dA*kA*kG*kA) [compound 830199] | 37% |  |
| 830200 (antisense kG*kA*kA*dG*dG*d[5mC]*dT*dA*d[5mC]*dA*d[5mC]*d[5mC]*dA*kA*kA*kG) [compound 830200] | 33% |  |
| 830201 (antisense k[5mC]*kT*kG*dA*dA*dG*dG*d[5mC]*dT*dA*d[5mC]*dA*d[5mC]*k[5mC]*kA*kA) [compound 830201] | 37% |  |
| 830202 (antisense kT*k[5mC]*kT*dG*dA*dA*dG*dG*d[5mC]*dT*dA*d[5mC]*dA*k[5mC]*k[5mC]*kA) [compound 830202] | 50% |  |
| 830203 (kG*k[5mC]*kT*d[5mC]*dT*dG*dA*dA*dG*dG*d[5mC]*dT*dA*k[5mC]*kA*k[5mC]; antisense) [compound 830203] | 40% |  |
| 830204 (kG*kT*kA*dT*d[5mC]*d[5mC]*dA*dT*d[5mC]*dA*dA*d[5mC]*dT*kG*k[5mC]*kT; antisense) [compound 830204] | 59% |  |
| 830205 (kG*kA*k[5mC]*dT*d[5mC]*dA*dT*d[5mC]*dA*dG*dG*d[5mC]*dA*kT*kT*k[5mC]; antisense) [compound 830205] | 26% |  |
| 830206 (kT*kG*kA*d[5mC]*dT*d[5mC]*dA*dT*d[5mC]*dA*dG*dG*d[5mC]*kA*kT*kT; antisense) [compound 830206] | 51% |  |
| 830209 (kA*k[5mC]*k[5mC]*dG*dG*dA*dA*dG*dT*d[5mC]*dT*dT*dG*kT*kA*kT; antisense) [compound 830209] | 31% |  |
| 830210 (kG*kA*k[5mC]*d[5mC]*dG*dG*dA*dA*dG*dT*d[5mC]*dT*dT*kG*kT*kA; antisense) [compound 830210] | 29% |  |
| 830211 (kA*kG*kA*d[5mC]*d[5mC]*dG*dG*dA*dA*dG*dT*d[5mC]*dT*kT*kG*kT; antisense) [compound 830211] | 30% |  |
| 830212 (kG*k[5mC]*kA*dG*dG*dG*dT*dG*dG*dA*dG*dA*d[5mC]*k[5mC]*kG*kG; antisense) [compound 830212] | 43% |  |
